Results published in patent US7553815B1, “Therapeutic use” (priority 1999, dated 2009).
Marks after values point to notes of the source that are not given here.

System: normal breast epithelium
Assay: Normal breast xenografts: proliferation (Ki67 LI) and apoptosis (AI) (Example 2)
Assay type: in vivo, human

## COc1cc2ncnc(Nc3ccc(F)c(Cl)c3)c2cc1OCCCN1CCOCC1 [ZD1839, N-(3-chloro-4-fluorophenyl)-7-methoxy-6-(3-morpholinopropoxy)quinazolin-4-amine]
Day 21, ratio of cell turnover
  Median LI/AI, Normal breast: 3.9***
Normal breast, Day 28, 10-200 mg/kg
  Dose response of epithelial proliferation (Ki67 LI), FIG. 2: not in normal breast
